This note sets out measurements from patent US10597378B2 (priority 2017, dated 2020).

Data set [1] relates to wild-type C57BL/6 (B6) mice. Briefly: Tail flick test (acute thermal pain). As to conditions: equi-antinociceptive doses, B6 mice. Type of data set: in vivo, mouse.
Data set [2] concerns B6 mice. Briefly: Respiratory function test. The settings on record: acute, equi-antinociceptive doses.
In data set [3] the test system is B6 mice. The experiment in a line: Cardiovascular function test (tail cuff plethysmography). As to conditions: acute, equi-antinociceptive doses.
In another data set the test system is mice. The experiment in a line: Conditioned place preference (CPP) test, reinstatement of morphine CPP. The settings on record: challenge on reinstatement day (Day 21).

Turning to `CN1CC[C@]23c4c5ccc(O)c4O[C@H]2[C@@H](O)C=C[C@H]3[C@H]1C5.Cl` [morphine, Morphine hydrochloride, reference compound], the “time at which analgesic effects were exerted after acute injection” value in data set [1] was 20 min. The “respiratory amplitude (tidal volume)” value with B6 mice [2] is “significantly reduced respiratory amplitude (tidal volume) at 10 to 20 min”. Moreover, in the data set on B6 mice [2] (10-60 min), the respiratory frequency result was “marked respiratory depression at 10 min and keep falling of respiratory frequency going through 60 min”. Also, in the data set on B6 mice [3], the blood pressure entry is “non-significant effect on blood pressure”, the “heart rate (pulse)” value was “reduced from 10 to 30 min” and the rate-pressure product result is “reduced from 10 to 20 min”. The “reinstatement of morphine CPP” value with mice is “induced reinstatement of morphine CPP”.
